{"source": "patent US20110152362A1", "about": "“METHODS OF TREATING EPILEPTOGENESIS AND EPILEPSY” (priority 2004, published 2011)", "key": {"[1]": {"assay": "Blood levels in humans, oral administration of Test Compound for 7 days (toxicology studies)", "assay_type": "in vivo, human", "conditions": "for Cmax at 7 days: blood; for Cmax at 7 days / AUC (0-24): human", "description": "In toxicology studies in humans, oral administration of Test Compound at various doses for 7 days produced the following C max's and AUC (0-24): […]"}, "[2]": {"assay": "Blood levels in rats, oral administration of Test Compound for 8 days (toxicology studies)", "assay_type": "in vivo", "conditions": "rat; for Cmax at 8 days: blood", "description": "In toxicology studies in rats, oral administration of Test Compound (TC) for 8 days produced the following C max and AUC: […]"}, "[3]": {"test_system": "seizures in rats", "assay": "ED50 for preventing seizures in rats", "assay_type": "in vivo", "conditions": "Rattus norvegicus, depending on the time and experiment type"}, "[4]": {"test_system": "rats subjected to Li-pilo induced SE", "assay": "Example 1: latency to and frequency of spontaneous recurrent seizures (SRS), lithium-pilocarpine model", "assay_type": "in vivo, rat", "method": "The bilateral EEG cortical activity was recorded during the whole duration of SE and behavioral changes were noted.\n(§1) The effects of increasing doses of the Test Compound were studied on 3 groups of rats. The animals of the first group received 10 mg/kg of the test compound, i.p., 1 h after the onset of SE (pilo-TC10) while the animals of groups 2 and 3 received 30 and 60 mg/kg of the Test Compound (pilo-TC30 and pilo-TC60), respectively.\n(§2) The control group received saline instead of pilocarpine and the Test Compound (saline-saline). […] Pilo-DZP received a second injection of 1 mg/kg DZP on the day of SE at about 10 h after the first one. Thereafter, Pilo-DZP and saline-saline rats received twice daily an equivalent volume of saline.\nThe effects of the test compound on the EEG and on the latency to occurrence of SRS were investigated by daily video recording of the animals for 10 h per day and the recording of the electrographic activity twice a week for 8 h.\nTo calculate the frequency of SRS in pilocarpine-exposed rats, the seizure severity and distinguished stage III (clonic seizures of facial muscles and anterior limbs) and stage IV-V seizures (rearing and falling) was measured. The frequency of stage III SRS per week in pilo-DZP and pilo-test compound rats was variable amongst the groups. It was low, constant in the pilo-DZP and pilo-TC60 (with early SRS onset) groups during the first 3 weeks and had disappeared during the 4th week in the pilo-DZP group. […] The frequency of more severe stage IV-V SRS was highest during the first week in most groups, except pilo-TC30 and TC60 with late seizure onset where the SRS frequency was constant over the whole 4 weeks in TC30 group and over the first two weeks in the pilo-TC60 group with late SRS onset in which no stage IV-V seizures where no seizures recorded after the second week."}, "[5]": {"test_system": "rats subjected to Li-pilo induced SE", "assay": "Example 1: quantification of cell densities in hippocampus, thalamus and cortex after Li-pilo SE", "assay_type": "in vivo, rat", "method": "as §1, §2\nQuantification of cell densities was performed at 6 days after SE on 8 pilo-DZP, 8 pilo-TC10, 7 pilo-TC30, 7 pilo-TC60, and 6 saline-saline rats. […] Counts involved only cells larger than 10 μm, smaller ones being considered as glial cells.\nFor the comparison of the characteristics of SE in pilo-saline and pilo-test compound animals, a non-paired Student's t-test was used. The comparison between the number of rats seizing in both groups was performed by means of a Chi square test. For neuronal damage, statistical analysis between groups was performed using ANOVA followed by a Fisher's test for multiple comparisons using the Statview software (Fisher R A, 1946a, Statistical Methods for Research Workers (10th edition) Oliver & Boyd, Edinburgh; Fisher R A, 1946b, The Design of Experiments (4th edition) Oliver & Boyd, Edinburgh)"}, "[6]": {"test_system": "rats subjected to li-pilo SE", "assay": "Example 2: mortality over the first 48 h after Li-pilo SE", "assay_type": "in vivo, rat", "parameters": "concentration or dose not given beside the values"}, "[7]": {"test_system": "rats subjected to li-pilo SE", "assay": "Example 2: latency to and frequency of spontaneous seizures (video recording)", "assay_type": "in vivo, rat", "method": "The effects of DZP and the 4 doses of TC on epileptogenesis were investigated by daily video recording of the animals for 10 h per day. Video recording was performed for 4 weeks during which the occurrence of the first seizure was noted as well as the total number of seizures over the whole period. Animals were then taken off the video recording system and kept for 4 additional weeks in our animal facilities before they were sacrificed after a total period of 8 weeks of epilepsy."}}, "data": [{"smiles": "NC(=O)OC[C@@H](O)c1ccccc1Cl", "note": "[TC]", "values": [{"measurement": "tolerability in humans", "setting": "[1]; 750 mg twice a day (1500 mg/day)", "result": "easily tolerated"}, {"measurement": "Cmax at 7 days", "setting": "[1]; oral 100 mg b.i.d. for 7 days", "result": 3600, "unit": "ng/mL"}, {"measurement": "Cmax at 7 days", "setting": "[1]; oral 250 mg b.i.d. for 7 days", "result": 8200, "unit": "ng/mL"}, {"measurement": "Cmax at 7 days", "setting": "[1]; oral 500 mg b.i.d. for 7 days", "result": 17200, "unit": "ng/mL"}, {"measurement": "Cmax at 7 days", "setting": "[1]; oral 750 mg b.i.d. for 7 days", "result": 28200, "unit": "ng/mL"}, {"measurement": "AUC (0-24)", "setting": "[1]; oral 100 mg b.i.d. for 7 days", "result": 42.2, "unit": "micrograms-hour/mL"}, {"measurement": "AUC (0-24)", "setting": "[1]; oral 250 mg b.i.d. for 7 days", "result": 102.3, "unit": "micrograms-hour/mL"}, {"measurement": "AUC (0-24)", "setting": "[1]; oral 500 mg b.i.d. for 7 days", "result": 204.1, "unit": "micrograms-hour/mL"}, {"measurement": "AUC (0-24)", "setting": "[1]; oral 750 mg b.i.d. for 7 days", "result": 322.7, "unit": "micrograms-hour/mL"}, {"measurement": "Cmax at 8 days", "setting": "[2]; oral 30 mg/kg/day for 8 days", "result": 9330, "unit": "ng/mL"}, {"measurement": "Cmax at 8 days", "setting": "[2]; oral 100 mg/kg/day for 8 days", "result": 20600, "unit": "ng/mL"}, {"measurement": "Cmax at 8 days", "setting": "[2]; oral 300 mg/kg/day for 8 days", "result": 70300, "unit": "ng/mL"}, {"measurement": "AUC", "setting": "[2]; oral 30 mg/kg/day for 8 days", "result": 97.32, "unit": "micrograms-hour/mL"}, {"measurement": "AUC", "setting": "[2]; oral 100 mg/kg/day for 8 days", "result": 230.33, "unit": "micrograms-hour/mL"}, {"measurement": "AUC", "setting": "[2]; oral 300 mg/kg/day for 8 days", "result": 525.95, "unit": "micrograms-hour/mL"}, {"measurement": "ED50", "setting": "[3]", "result": "4 to 30", "unit": "mg/kg"}, {"measurement": "rats in which occurrence of spontaneous seizures was delayed", "setting": "[4]; TC 60 mg/kg (4 out of 11)", "result": 36, "unit": "%"}, {"measurement": "mean delay to epilepsy in subgroup vs other groups of animals", "setting": "[4]; TC 60 mg/kg, subgroup", "result": "about 9 fold longer"}, {"measurement": "latency to SRS", "setting": "[4]; TC60, subgroup with latency similar to other groups (n=7)", "result": "17.6 ± 8.7", "unit": "days"}, {"measurement": "latency to SRS, mean", "setting": "[4]; TC60, subgroup with much longer delay (n=4)", "result": "149.8 ± 36.0", "unit": "days"}, {"measurement": "frequency of stage IV-V SRS", "setting": "[4]; first week, TC10, TC30 and TC60 (with early SRS onset) groups", "result": "2.3-6.1 SRS per week"}, {"measurement": "frequency of stage III SRS", "setting": "[4]; pilo-TC10 group, weeks 3 and 4", "result": "significantly increased over pilo-DZP values"}, {"measurement": "latency to SRS", "setting": "[4]; pilo-TC10 rats", "result": "15.4 ± 5.1", "unit": "days"}, {"measurement": "latency to SRS", "setting": "[4]; pilo-TC30 rats", "result": "18.9 ± 9.0", "unit": "days"}, {"measurement": "frequency of stage IV-V SRS", "setting": "[4]; weeks 2-4, pilo-TC60 group with early SRS onset", "result": "0.6-0.9 seizure per week"}, {"measurement": "protective effects at lowest dose tested in Example 1", "setting": "[5]; 10 mg/kg/day", "result": "minimal or no protective effects"}, {"measurement": "protection in CA3b", "setting": "[5]; 60 mg/kg", "result": "significantly neuroprotective"}, {"measurement": "reduction of neuronal damage, lateral thalamic nucleus", "setting": "[5]; 60 mg/kg dose", "result": 65, "unit": "%"}, {"measurement": "reduction of neuronal damage, mediodorsal thalamic nucleus", "setting": "[5]; 60 mg/kg dose", "result": 42, "unit": "%"}, {"measurement": "neuroprotection compared to pilo-DZP rats, ventral entorhinal cortex layers III-IV", "setting": "[5]; TC60 administration", "result": 31, "unit": "%"}, {"measurement": "reduction of neuronal damage recorded in pilo-DZP rats, piriform cortex layer II", "setting": "[5]; TC60 treatment", "result": 41, "unit": "%"}, {"measurement": "reduction of neuronal damage recorded in pilo-DZP rats, piriform cortex layers III-IV", "setting": "[5]; TC60 treatment", "result": 44, "unit": "%"}, {"measurement": "worsening of cell loss compared with pilo-DZP rats, dorsal entorhinal cortex layers III-IV", "setting": "[5]; pilo-TC10 rats", "result": 28, "unit": "% more damage"}, {"measurement": "worsening of cell loss compared with pilo-DZP rats, ventral entorhinal cortex layers III-IV", "setting": "[5]; pilo-TC10 rats", "result": 35, "unit": "% more damage"}, {"measurement": "cell loss, CA1 pyramidal layer", "setting": "[5]; pilo-TC30 animals", "result": 35, "unit": "%"}, {"measurement": "cell loss, CA1 pyramidal layer", "setting": "[5]; pilo-TC60 animals", "result": 16, "unit": "%"}, {"measurement": "cell loss in the hilus of dentate gyrus", "setting": "[5]; pilo-test compound animals (10, 30, 60 mg/kg)", "result": "69-72%"}, {"measurement": "protection in the CA3a area", "setting": "[5]; test compound 10, 30, 60 mg/kg", "result": "did not afford any protection"}, {"measurement": "mortality over the first 48 h after SE", "setting": "[6]; TC30, group for cell counting at 14 days", "result": 33, "unit": "%"}, {"measurement": "mortality over the first 48 h after SE", "setting": "[6]; TC30, group for latency to SRS and late cell counting", "result": 27, "unit": "%"}, {"measurement": "mortality over the first 48 h after SE", "setting": "[6]; TC60, group for cell counting at 14 days", "result": 8, "unit": "%"}, {"measurement": "mortality over the first 48 h after SE", "setting": "[6]; TC60, group for latency to SRS and late cell counting", "result": 0, "unit": "%"}, {"measurement": "mortality over the first 48 h after SE", "setting": "[6]; TC90, group for cell counting at 14 days", "result": 0, "unit": "%"}, {"measurement": "mortality over the first 48 h after SE", "setting": "[6]; TC90, group for latency to SRS and late cell counting", "result": 0, "unit": "%"}, {"measurement": "mortality over the first 48 h after SE", "setting": "[6]; TC120, group for cell counting at 14 days", "result": 33, "unit": "%"}, {"measurement": "mortality over the first 48 h after SE", "setting": "[6]; TC120, group for latency to SRS and late cell counting", "result": 0, "unit": "%"}, {"measurement": "effect on the latency to the first spontaneous seizure", "setting": "[7]; 30 mg/kg", "result": "did not affect the latency to the first spontaneous seizure"}, {"measurement": "latency of long latency subgroup relative to short latency", "setting": "[7]; 3 higher doses (60, 90, 120 mg/kg)", "result": "4-6 times longer"}, {"measurement": "frequency of spontaneous seizures over four weeks of recording", "setting": "[7]; TC60, 90 and 120 groups vs DZP and TC30 groups", "result": "lower"}, {"measurement": "percentage of rats with short latencies to seizures", "setting": "[7]; at 30 mg/kg (so in the source), short latency = shorter than 40 days after SE", "result": 70, "unit": "%"}, {"measurement": "percentage of rats with short latencies to seizures", "setting": "[7]; at 90 mg/kg", "result": 36, "unit": "%"}, {"measurement": "percentage of rats with short latencies to seizures", "setting": "[7]; at 120 mg/kg", "result": 11, "unit": "%"}, {"measurement": "percentage of non-epileptic rats (no seizure over 150 days post-SE)", "setting": "[7]; at both highest doses, 90 and 120 mg/kg", "result": 45, "unit": "%"}, {"measurement": "Latency to the first spontaneous seizure", "setting": "[7]; pilo-TC30, 30 mg/kg", "result": "11.6 ± 2.5", "unit": "days"}, {"measurement": "Latency to the first spontaneous seizure", "setting": "[7]; pilo-TC60, Long latency subgroup", "result": "76.7 ± 15.6**°° days"}, {"measurement": "Latency to the first spontaneous seizure", "setting": "[7]; pilo-TC60, Short latency subgroup", "result": "17.4 ± 5.4", "unit": "days"}, {"measurement": "Latency to the first spontaneous seizure", "setting": "[7]; pilo-TC90, Long latency subgroup", "result": "52.0 ± 1.0*° days"}, {"measurement": "Latency to the first spontaneous seizure", "setting": "[7]; pilo-TC90, Non epileptic subgroup (no seizure over 150 days post-SE)", "result": "150**°° days"}, {"measurement": "Latency to the first spontaneous seizure", "setting": "[7]; pilo-TC90, Short latency subgroup", "result": "14.8 ± 5.7", "unit": "days"}, {"measurement": "Latency to the first spontaneous seizure", "setting": "[7]; pilo-TC120, Long latency subgroup", "result": "84.5 ± 16.7**°° days"}, {"measurement": "Latency to the first spontaneous seizure", "setting": "[7]; pilo-TC120, Non epileptic subgroup (no seizure over 150 days post-SE)", "result": "150**°° days"}, {"measurement": "Latency to the first spontaneous seizure", "setting": "[7]; pilo-TC120, Short latency subgroup", "result": 13.0, "unit": "days"}]}]}
